Columns and labels:
OVCAR-8 = experiment: Antiproliferative activity against human OVCAR8 cells; type: functional, cell-based
hERG (KCNH2) = hERG (KCNH2) (Homo sapiens, UniProt Q12809); experiment: Inhibition of ERG in human HEK293 cells at 3 uM at -80 mV holding potential by whole-cell patch clamp assay relative to control; type: cell-based; settings: HEK293 cells expressing ERG
[1] = Microsomal stability in mouse liver microsomes assessed as compound remaining at 100 ug/ml in presence of NADPH measured at 1.5 hrs by LC/MS analysis; type: ADME, Microsome; settings: read-out: Stability
[2] = Microsomal stability in rat liver microsomes assessed as compound remaining at 100 ug/ml in presence of NADPH measured at 1.5 hrs by LC/MS analysis; type: ADME, Microsome; settings: read-out: Stability
[3] = Microsomal stability in dog liver microsomes assessed as compound remaining at 100 ug/ml in presence of NADPH measured at 1.5 hrs by LC/MS analysis; type: ADME, Canis lupus familiaris, Microsome; settings: read-out: Stability
[4] = Microsomal stability in monkey liver microsomes assessed as compound remaining at 100 ug/ml in presence of NADPH measured at 1.5 hrs by LC/MS analysis; type: ADME, Macaca mulatta, Microsome; settings: rhesus monkey, read-out: Stability
[5] = Cmax in ICR mouse at 20 mg/kg, po measured up to 48 hrs by LC-MS/MS analysis; type: ADME, organism-based; parameters: dose 20 mg/kg, route oral; settings: in vivo
[6] = Half-life in ICR mouse at 20 mg/kg, po measured up to 48 hrs by LC-MS/MS analysis; type: ADME, organism-based; settings: in vivo
[7] = AUC (0 to infinity) in ICR mouse at 20 mg/kg, po measured up to 48 hrs by LC-MS/MS analysis; type: ADME, organism-based; parameters: dose 20 mg/kg, time infinity, route oral; settings: in vivo
[8] = Oral bioavailability in ICR mouse at 20 mg/kg measured up to 48 hrs by LC-MS/MS analysis; type: ADME, organism-based; settings: in vivo
[9] = molecular target: Serine/threonine-protein kinase AKT (Homo sapiens, UniProt P31751+Q9Y243+P31749); experiment: Inhibition of Akt in human LNCaP cells assessed as reduction in PRAS40 phosphorylation at T246 residue after 1 hr by ELISA; type: cell-based
[10] = Toxicity in ICR mouse assessed as reduction in red blood cells at 40 mg/kg, ig administered once daily for 7 days; type: organism-based; settings: in vivo, po, 168 h
[11] = Toxicity in ICR mouse assessed as reduction in hemoglobin level at 40 mg/kg, ig administered once daily for 7 days; type: organism-based; settings: in vivo, po, 168 h
[12] = Toxicity in ICR mouse assessed as reduction in specific volume of RBC at 40 mg/kg, ig administered once daily for 7 days; type: organism-based; settings: in vivo, po, 168 h
[13] = Toxicity in ICR mouse assessed as reduction in creatinine level at 40 mg/kg, ig administered once daily for 7 days; type: organism-based; settings: in vivo, po, 168 h
MM1.S = experiment: Antitumor activity against human MM1S cells xenografted in BALB/c nude mouse assessed as tumor growth inhibition at 10 mg/kg, po administered once daily for 22 days relative to control; type: functional; settings: 528 h, read-out: TGI
[14] = Toxicity in BALB/c nude mouse xenografted with human MM1S cells assessed as reduction in body weight at 10 mg/kg, po administered once daily for 22 days relative to control; type: organism-based; parameters: scale not given: the % may be the effect or the level left; settings: in vivo, 528 h
[15] = Toxicity in po dosed BALB/c nude mouse xenografted with human MM1S cells assessed as maximum tolerated dose administered once daily for 22 days; type: organism-based; settings: in vivo
[16] = Toxicity in BALB/c nude mouse xenografted with human MM1S cells assessed as reduction in mouse survival at 10 mg/kg, po administered once daily for 22 days; type: organism-based; settings: in vivo, 528 h
[17] = Toxicity in ICR mouse assessed as reduction in mouse survival at 20 to 40 mg/kg, ig administered once daily for 7 days; type: organism-based; settings: in vivo, po, 168 h
[18] = Toxicity in ICR mouse assessed as induction of heavy gastrointestinal hemorrhage by autopsy analysis; settings: in vivo
LNCaP = experiment: Antiproliferative activity against human LNCAP cells; type: functional, cell-based
[19] = molecular target: RAC-beta serine/threonine-protein kinase (Homo sapiens, UniProt P31751); experiment: Inhibition of human Akt2 by mobile shift assay
[20] = molecular target: RAC-gamma serine/threonine-protein kinase (Homo sapiens, UniProt Q9Y243); experiment: Inhibition of Akt3 (unknown origin) by mobile shift assay
Protein kinase C (PKC) = experiment: Inhibition of PKC (unknown origin); type: protein assay, Homo sapiens
[21] = molecular target: Rho-associated protein kinase 1 (Homo sapiens, UniProt Q13464); experiment: Inhibition of human ROCK1 by mobile shift assay
[22] = molecular target: Ribosomal protein S6 kinase alpha-1 (Homo sapiens, UniProt Q15418); experiment: Inhibition of RSK1 (unknown origin) by mobility shift assay
[23] = molecular target: Ribosomal protein S6 kinase beta-1 (Homo sapiens, UniProt P23443); experiment: Inhibition of human P70S6K by mobility shift assay
[24] = molecular target: T1, Serine/threonine-protein kinase Sgk1 (Homo sapiens, UniProt O00141); experiment: Inhibition of human SGK by mobility shift assay
T1 sequence (O00141 whole entry): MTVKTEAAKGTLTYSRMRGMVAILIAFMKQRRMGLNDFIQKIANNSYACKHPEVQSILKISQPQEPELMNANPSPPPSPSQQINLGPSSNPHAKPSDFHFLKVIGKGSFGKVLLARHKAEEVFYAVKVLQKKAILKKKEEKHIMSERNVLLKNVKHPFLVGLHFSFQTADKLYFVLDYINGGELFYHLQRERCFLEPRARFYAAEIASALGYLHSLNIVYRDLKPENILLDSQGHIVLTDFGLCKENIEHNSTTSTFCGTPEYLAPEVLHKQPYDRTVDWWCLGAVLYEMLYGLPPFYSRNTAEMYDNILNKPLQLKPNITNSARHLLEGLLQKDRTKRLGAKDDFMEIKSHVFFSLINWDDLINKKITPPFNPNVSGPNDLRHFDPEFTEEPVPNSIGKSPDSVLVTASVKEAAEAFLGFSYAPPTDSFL

[25] = molecular target: RAC-alpha serine/threonine-protein kinase (Homo sapiens, UniProt P31749)
Description: Inhibition of human Akt1 expressed in Escherichia coli using STK Substrate 2-biotin as substrate incubated for 1 hr by HTRF assay

HCT-116 = experiment: cells; settings: Homo sapiens, HCT-116, 72 h

Chain of Ribosomal protein S6 kinase beta-1 (P23443 whole entry): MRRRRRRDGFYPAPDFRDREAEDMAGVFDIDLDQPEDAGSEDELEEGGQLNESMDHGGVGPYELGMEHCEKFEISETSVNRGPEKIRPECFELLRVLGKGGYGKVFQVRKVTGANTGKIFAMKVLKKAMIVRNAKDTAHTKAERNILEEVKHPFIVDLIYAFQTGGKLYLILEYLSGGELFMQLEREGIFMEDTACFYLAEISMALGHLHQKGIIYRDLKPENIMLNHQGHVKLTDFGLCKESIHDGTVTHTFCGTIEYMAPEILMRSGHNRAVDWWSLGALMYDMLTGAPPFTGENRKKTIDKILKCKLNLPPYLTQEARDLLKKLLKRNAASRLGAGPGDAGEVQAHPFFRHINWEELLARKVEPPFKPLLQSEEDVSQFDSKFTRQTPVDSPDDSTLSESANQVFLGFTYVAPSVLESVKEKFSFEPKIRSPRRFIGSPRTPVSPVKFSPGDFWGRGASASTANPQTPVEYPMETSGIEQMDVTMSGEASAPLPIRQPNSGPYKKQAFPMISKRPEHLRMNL
Chain of Ribosomal protein S6 kinase alpha-1 (Q15418 whole entry): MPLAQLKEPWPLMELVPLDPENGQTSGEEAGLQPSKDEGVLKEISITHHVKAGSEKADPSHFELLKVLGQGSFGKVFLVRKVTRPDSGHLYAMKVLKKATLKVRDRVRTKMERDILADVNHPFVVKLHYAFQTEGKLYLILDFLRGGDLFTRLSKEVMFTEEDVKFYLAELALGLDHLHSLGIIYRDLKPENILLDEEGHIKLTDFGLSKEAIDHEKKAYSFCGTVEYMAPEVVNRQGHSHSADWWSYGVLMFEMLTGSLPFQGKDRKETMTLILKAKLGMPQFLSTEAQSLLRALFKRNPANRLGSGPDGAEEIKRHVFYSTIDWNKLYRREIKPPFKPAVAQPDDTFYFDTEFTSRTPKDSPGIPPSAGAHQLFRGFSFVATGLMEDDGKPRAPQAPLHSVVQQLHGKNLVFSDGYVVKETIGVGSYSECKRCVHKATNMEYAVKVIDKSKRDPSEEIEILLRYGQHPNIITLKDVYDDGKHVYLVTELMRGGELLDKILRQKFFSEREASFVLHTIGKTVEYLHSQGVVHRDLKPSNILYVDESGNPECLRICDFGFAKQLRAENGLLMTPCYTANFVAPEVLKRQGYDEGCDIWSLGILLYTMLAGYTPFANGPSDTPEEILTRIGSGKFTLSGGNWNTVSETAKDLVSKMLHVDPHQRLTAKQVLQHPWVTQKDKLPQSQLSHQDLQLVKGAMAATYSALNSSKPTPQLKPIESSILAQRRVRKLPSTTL
Chain of hERG (KCNH2) (Q12809 whole entry): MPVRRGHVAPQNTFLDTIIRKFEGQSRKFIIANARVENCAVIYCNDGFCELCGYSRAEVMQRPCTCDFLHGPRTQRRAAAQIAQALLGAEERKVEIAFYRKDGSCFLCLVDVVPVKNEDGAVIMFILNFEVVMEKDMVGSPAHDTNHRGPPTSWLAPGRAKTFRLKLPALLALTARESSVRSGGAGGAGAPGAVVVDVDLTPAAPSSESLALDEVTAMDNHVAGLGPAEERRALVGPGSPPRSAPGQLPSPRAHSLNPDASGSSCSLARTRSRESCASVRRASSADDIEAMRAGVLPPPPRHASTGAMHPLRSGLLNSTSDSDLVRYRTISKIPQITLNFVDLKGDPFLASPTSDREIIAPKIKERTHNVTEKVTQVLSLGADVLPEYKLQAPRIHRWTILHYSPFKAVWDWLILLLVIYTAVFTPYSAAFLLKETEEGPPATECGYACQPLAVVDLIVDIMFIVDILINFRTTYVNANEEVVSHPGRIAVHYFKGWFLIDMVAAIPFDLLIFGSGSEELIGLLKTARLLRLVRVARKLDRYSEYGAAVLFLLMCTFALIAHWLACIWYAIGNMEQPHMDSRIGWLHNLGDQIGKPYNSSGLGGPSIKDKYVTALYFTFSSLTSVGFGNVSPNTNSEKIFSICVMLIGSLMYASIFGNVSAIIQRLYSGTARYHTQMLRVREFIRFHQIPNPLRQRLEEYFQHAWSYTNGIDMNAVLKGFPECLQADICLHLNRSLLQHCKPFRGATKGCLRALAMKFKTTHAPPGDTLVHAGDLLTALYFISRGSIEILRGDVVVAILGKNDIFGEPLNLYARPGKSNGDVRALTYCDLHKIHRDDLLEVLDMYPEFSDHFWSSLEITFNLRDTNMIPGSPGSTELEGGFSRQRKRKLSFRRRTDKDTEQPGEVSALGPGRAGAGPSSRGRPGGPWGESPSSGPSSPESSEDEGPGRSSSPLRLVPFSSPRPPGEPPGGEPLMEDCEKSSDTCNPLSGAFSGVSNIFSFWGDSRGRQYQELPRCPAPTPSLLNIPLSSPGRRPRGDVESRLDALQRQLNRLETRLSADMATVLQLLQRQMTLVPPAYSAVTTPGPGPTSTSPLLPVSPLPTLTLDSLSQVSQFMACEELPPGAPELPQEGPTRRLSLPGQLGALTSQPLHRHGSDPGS
Chain of RAC-beta serine/threonine-protein kinase (P31751 whole entry): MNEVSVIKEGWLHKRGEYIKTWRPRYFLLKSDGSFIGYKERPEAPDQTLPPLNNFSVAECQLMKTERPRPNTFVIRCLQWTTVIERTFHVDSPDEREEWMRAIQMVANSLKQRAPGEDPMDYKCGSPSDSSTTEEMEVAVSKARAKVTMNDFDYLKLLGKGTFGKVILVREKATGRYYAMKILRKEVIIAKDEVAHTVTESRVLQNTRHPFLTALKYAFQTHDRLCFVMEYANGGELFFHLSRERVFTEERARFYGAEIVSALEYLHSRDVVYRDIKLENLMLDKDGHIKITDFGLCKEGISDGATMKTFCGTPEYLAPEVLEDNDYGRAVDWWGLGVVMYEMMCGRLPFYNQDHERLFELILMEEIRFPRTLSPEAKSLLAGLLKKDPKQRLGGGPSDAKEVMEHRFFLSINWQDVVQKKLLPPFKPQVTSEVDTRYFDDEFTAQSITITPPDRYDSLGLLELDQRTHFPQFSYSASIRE
Chain of RAC-gamma serine/threonine-protein kinase (Q9Y243 whole entry): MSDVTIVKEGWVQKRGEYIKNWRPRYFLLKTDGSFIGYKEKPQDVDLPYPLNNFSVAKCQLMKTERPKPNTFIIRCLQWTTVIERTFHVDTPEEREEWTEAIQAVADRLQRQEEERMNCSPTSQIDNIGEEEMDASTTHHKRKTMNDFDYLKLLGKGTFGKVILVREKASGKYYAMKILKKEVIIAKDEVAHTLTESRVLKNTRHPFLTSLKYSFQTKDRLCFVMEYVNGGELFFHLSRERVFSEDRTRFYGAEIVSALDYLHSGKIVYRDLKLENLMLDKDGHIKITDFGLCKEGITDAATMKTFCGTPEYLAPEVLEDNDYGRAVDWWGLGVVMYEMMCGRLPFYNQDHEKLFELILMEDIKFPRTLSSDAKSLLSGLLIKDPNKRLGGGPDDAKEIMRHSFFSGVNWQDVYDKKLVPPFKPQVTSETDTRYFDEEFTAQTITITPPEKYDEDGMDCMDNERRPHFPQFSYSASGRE
Chain of Rho-associated protein kinase 1 (Q13464 whole entry): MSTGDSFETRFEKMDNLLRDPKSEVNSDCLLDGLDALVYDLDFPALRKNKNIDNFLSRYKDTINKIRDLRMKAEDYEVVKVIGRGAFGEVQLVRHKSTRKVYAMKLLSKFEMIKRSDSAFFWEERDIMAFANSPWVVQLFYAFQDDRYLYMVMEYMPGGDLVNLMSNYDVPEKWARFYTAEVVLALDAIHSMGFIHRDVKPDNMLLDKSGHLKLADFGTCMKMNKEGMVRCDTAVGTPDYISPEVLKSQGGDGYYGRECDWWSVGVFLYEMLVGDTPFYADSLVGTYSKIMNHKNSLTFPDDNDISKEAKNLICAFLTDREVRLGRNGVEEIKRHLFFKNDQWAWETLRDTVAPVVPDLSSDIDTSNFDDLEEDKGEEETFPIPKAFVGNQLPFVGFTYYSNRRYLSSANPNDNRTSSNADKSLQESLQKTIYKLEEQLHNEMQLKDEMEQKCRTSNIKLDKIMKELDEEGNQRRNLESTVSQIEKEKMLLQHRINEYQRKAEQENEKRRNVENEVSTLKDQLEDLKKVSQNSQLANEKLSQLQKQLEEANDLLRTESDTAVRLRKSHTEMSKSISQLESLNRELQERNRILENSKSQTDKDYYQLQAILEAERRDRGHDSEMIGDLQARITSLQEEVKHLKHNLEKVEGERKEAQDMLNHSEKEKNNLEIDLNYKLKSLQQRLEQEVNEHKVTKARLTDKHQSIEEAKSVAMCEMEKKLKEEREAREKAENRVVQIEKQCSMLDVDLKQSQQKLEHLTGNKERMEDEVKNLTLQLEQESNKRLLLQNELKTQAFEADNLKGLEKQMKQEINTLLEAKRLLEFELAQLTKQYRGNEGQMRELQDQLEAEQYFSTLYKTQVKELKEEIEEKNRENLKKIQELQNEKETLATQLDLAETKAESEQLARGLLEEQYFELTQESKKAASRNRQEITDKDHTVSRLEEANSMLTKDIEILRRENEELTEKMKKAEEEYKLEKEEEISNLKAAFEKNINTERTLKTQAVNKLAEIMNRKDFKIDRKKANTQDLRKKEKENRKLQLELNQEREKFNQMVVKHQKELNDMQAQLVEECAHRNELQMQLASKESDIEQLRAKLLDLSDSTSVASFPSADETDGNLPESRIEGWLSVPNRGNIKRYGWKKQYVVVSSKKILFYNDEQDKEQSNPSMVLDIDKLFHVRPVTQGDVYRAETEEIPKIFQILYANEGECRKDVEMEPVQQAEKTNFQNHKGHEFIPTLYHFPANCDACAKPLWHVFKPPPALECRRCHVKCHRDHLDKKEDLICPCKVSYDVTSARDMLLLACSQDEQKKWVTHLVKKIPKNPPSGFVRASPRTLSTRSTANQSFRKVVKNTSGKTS

Question: Which IC50 (OVCAR-8) does the source give for `Cn1ncc(Cl)c1-c1cc(C(=O)N[C@@H]2CNCC[C@H]2c2ccc(F)c(F)c2)oc1Cl.O=C(O)C(O)C(O)C(=O)O` here?
Answer: 0.04 µM

Question: And the inhibition at 3 µM (hERG (KCNH2))?
Answer: 62.1%

Question: What about the remaining at 1.5 h, 100 ug/ml [1] of the same compound?
Answer: 89.9%

Question: And the remaining at 1.5 h, 100 ug/ml [2]?
Answer: 69.7%

Question: And the remaining at 1.5 h, 100 ug/ml [3]?
Answer: 86.9%

Question: What about the remaining at 1.5 h, 100 ug/ml [4] of the same compound?
Answer: 39.9%

Question: What about the Cmax [5] of the same compound?
Answer: 398 ng/mL

Question: What about the half-life [6] of the same compound?
Answer: 10.7 h

Question: And the AUC [7]?
Answer: 6670 ng·h/mL

Question: What about the bioavailability [8] of the same compound?
Answer: 97.9%

Question: And the IC50 [9]?
Answer: 0.0211 µM

Question: And the Activity [10]?
Answer: Toxic

Question: What about the Activity [11] of the same compound?
Answer: Toxic

Question: What about the Activity [12] of the same compound?
Answer: Toxic

Question: And the Activity [13]?
Answer: Toxic

Question: What about the inhibition in vivo at 10 mg/kg (MM1.S) of the same compound?
Answer: 87.5%

Question: And the Activity [14]?
Answer: <= 25%

Question: What about the MTD at 528 h [15] of the same compound?
Answer: < 10 mg/kg

Question: What about the Activity [16] of the same compound?
Answer: Toxic

Question: What about the Activity [17] of the same compound?
Answer: Toxic

Question: What about the Activity [18] of the same compound?
Answer: Toxic

Question: And the IC50 (LNCaP)?
Answer: 0.06 µM

Question: What about the IC50 [19] of the same compound?
Answer: < 0.00064 µM

Question: And the IC50 [20]?
Answer: 0.0001 µM

Question: What about the IC50 (Protein kinase C (PKC)) of the same compound?
Answer: 0.156 µM

Question: And the IC50 [21]?
Answer: 0.02 µM

Question: What about the IC50 [22] of the same compound?
Answer: 0.048 µM

Question: And the IC50 [23]?
Answer: 0.007 µM

Question: And the IC50 [24]?
Answer: 0.059 µM

Question: What about the IC50 [25] of the same compound?
Answer: 0.003 µM

Question: What about the IC50 (HCT-116) of the same compound?
Answer: 0.21 µM

Source: ChEMBL document CHEMBL4406807, “Discovery of 3,4,6-Trisubstituted Piperidine Derivatives as Orally Active, Low hERG Blocking Akt Inhibitors via Conformational Restriction and Structure-Based Design” (J Med Chem, 2019)
